Results: publication PMC6151508, “Development of Novel Nrf2/ARE Inducers Bearing Pyrazino[2,1-a]isoquinolin Scaffold with Potent In Vitro Efficacy and Enhanced Physicochemical Properties” (Molecules : A Journal of Synthetic Chemistry and Natural …, 2017)
Converted amounts (≈) assume the structure as drawn.

Experiments:
[1] = physchem; settings: PAMPA, pH 7.4
Experimental: (§6) Then we evaluated the physicochemical properties of a selected series of our compounds. […] All of them were evaluated with pKa, partition coefficient (log D, pH 7.4), membrane permeability (Pe, pH 7.4) and water solubility. […] Permeability (Pe) was determined by a standard parallel artificial membrane permeability assay (PAMPA by pION).
(§7) Permeability (Pe) was determined by a standard parallel artificial membrane permeability assay (PAMPA by pION).

[2] = MTT cell viability (cytotoxicity) assay; format: cell-based; settings: human, HCT116 cells
Experimental: (§1) All the derivatives were evaluated for their ability to induce ARE in HepG2-ARE-C8 cell (HepG2 cells stably transfected with a luciferase reporter) by ARE luciferase reporter assay, and they were compared to the lead compound 2. At the same time, cytotoxicity studies were performed by the MTT assay against the HCT116 cells. The results of cytotoxic activity in vitro were expressed as the IC50 [18]. Because those compounds were designed for chemoprevention, they should not be cytotoxic.
Cell viabilities were determined by using 3-[4,5-dimethylthiazol-2-yl]-2,5-diphenyltetrazolium bromide (MTT) assay. MTT was dissolved in (phosphate buffered solution) PBS to a concentration of 5 mg/mL. HCT116 cells (8 × 10^3 cells/well) were plated in 96-well plates and incubated overnight. Different concentrations of test compounds were added to each cell for 24 h at 37 °C, and the 20 μL MTT solution was added and incubated for an additional 4 h. Then, 100 μL of DMSO was added to dissolve formazan precipitate after the solution was removed. The OD value was determined at 570 nm by Elx800 absorbance microplate reader (BioTek, Winooski, VT, USA). IC50 value (concentration at which cell survival equals 50% of control) = […].

[3] = system: antioxidant response element (ARE); experiment: ARE luciferase reporter assay in HepG2-ARE-C8 cells; format: cell-based; settings: HepG2-ARE-C8, 12 h of treatment, mean ± SD n = 3; for fold induction at 0.1 µM / fold induction at 1 µM / fold induction at 5 µM / fold induction at 10 µM / fold induction at 50 µM / fold induction at 100 µM: read-out: ARE Inductivity in Luciferase Reporter Assay (induction fold)
Experimental: as §1
HepG2-ARE-C8 cells (4 × 10^4 cells/well) were incubated overnight in 96-well plates, and then treated with different concentrations of test compounds. tBHQ was used as a positive control, DMSO was used as a negative control, and the luciferase cell culture lysis reagent was used as a blank. The medium was removed after 12 h treatment. Then, the cells were harvested in the luciferase cell culture lysis reagent together with 100 μL of cold PBS. Then, centrifuging the solution and 20 μL of the supernatant was used for determining the luciferase activity. The luciferase activity was measured by a Luminoskan Ascent (Thermo Scientific, Waltham, MA, USA). The data were obtained in triplicate and expressed as fold induction over the control. Induction fold = (RLUtest − RLUblank)/(RLUDMSOcontrol − RLUblank). RLU = relative light unit l.

[4] = Parallel artificial membrane permeability assay (PAMPA by pION); settings: pH 7.4
Experimental: as §6, §7

[5] = pKa by potentiometric titration (Gemini Profiler, pION); format: physicochemical
From the text: (§2) Ketoprofen and propranolol were chosen as a control.
(§3) This is a new potentiometric acid−base titration method.

[6] = Water solubility by pH-metric method (pSOL model 3); format: physicochemical; settings: for solubility: water, pH 7.4, aqueous buffer, thermodynamic from solid
From the text: as §3

[7] = log D pH 7.4 by potentiometric titration (Gemini Profiler, pION); format: physicochemical
From the text: as §2, §3

[8] = system: HCT116 cells; design: method as in PMID 24053646; settings: previously reported value; cited from earlier work
[9] = system: antioxidant response element (ARE); design: method as in PMID 24053646; settings: 10 μM, luciferase reporter assay; cited from earlier work
[10] = system: NQO1; experiment: Western blot of NQO1 protein level in HCT116; format: cell-based, human; settings: tBHQ at 100 μM
From the text: (§4) Compound 3g was selected to evaluate its capacity to activate the expression of Nrf2-regulated NQO1 by measuring the protein levels in HCT116 via Western Blot. […] Those data further confirmed that 3g bearing pyrido[1,2-a]pyrazin scaffold could elevate both Nrf2 and downstream proteins of Nrf2 at the cellular level.
(§5) Anti-NQO1 (sc-271116), anti-Nrf2 (BS1258) and Anti-β-actin (AP0060) antibodies were purchased from Santa Cruz Biotechnology (Santa Cruz, CA, USA) and Bioworlde (Bioworlde, Visalia, CA, USA), respectively. The isolation of cell fractions and Western blotting were performed as detailed previously. Briefly, the extracts were separated by SDS-PAGE and then electrotransferred to PVDF membranes (Perkin Elmer, Northwalk, CT, USA). Membranes were blocked with 1% BSA for 1 h followed by incubation with a primary antibody at 4 °C overnight. Then they were washed and treated with a DyLight 800 labeled secondary antibody at 37 °C for 2 h. The membranes were screened through the odyssey infrared imaging System (LI-COR, Lincoln, NE, USA).

[11] = system: heme oxygenase-1 (HO-1); design: method as in PMID 24053646; settings: HCT116; cited from earlier work
[12] = system: Nrf2; design: method as in PMID 24053646; settings: HCT116; cited from earlier work
[13] = system: colorectal adenomas; design: method as in PMID 24053646; settings: AOM-DSS mouse model; cited from earlier work
[14] = system: NQO1; design: method as in PMID 24053646; settings: HCT116; cited from earlier work
[15] = system: Nrf2; experiment: Western blot of Nrf2 protein level in HCT116; format: cell-based, human; settings: HCT116, 10 μM
From the text: as §4, §5

Compound | melting point [°C] | Papp [4] [×10⁻⁶ cm/s] | pKa [5] | solubility [6] [µg/mL] | logD [7] | IC50 at 24 h [2] [µM] | fold induction at 0.1 µM [3] | fold induction at 1 µM [3] | fold induction at 5 µM [3] | fold induction at 10 µM ([3]; 10 μM) | fold induction at 50 µM [3] | fold induction at 100 µM ([3]; 100 μM) | other results
CC(C)NCC(O)COc1cccc2ccccc12 (stereo not shown) [Propranolol] | – | – | – | – | – | – | – | – | – | – | – | – | Papp [1]: 64.7 ± 8.58 ×10⁻⁶ cm/s
O=C(/C=C1\NCC2c3ccccc3CCN2C1=O)c1cccc(F)c1 (stereo not shown) [Compound 2] | – | 11.7 ± 2.2 | 2.78 | 22 (≈ 65.4 µM) | 2.38 | 165 | 1.45 ± 0.39 | 6.2 ± 4.06 | 16.2 ± 0.3 | 31.2 | 7.51 ± 1.32 | 12.2 ± 3.32 | IC50 [8]: > 100 µM; ARE Inductivity in Luciferase Reporter Assay (induction fold) ([3]; 10 μM): 31.17 ± 4.14 fold; induction of ARE (previously reported) [9]: 33.00 fold; water solubility ([6]; pH 7.4): 22 µg/mL (≈ 65.4 µM)
CC(C)(C)c1cc(O)ccc1O [tBHQ, tert-butylhydroquinone, reference compound] | – | – | – | – | – | – | 1 ± 0.01 | 1.8 ± 0.66 | 1.67 ± 0.56 | 1.98 ± 0.29 | 4.45 ± 1.15 | 10.8 | ARE Inductivity in Luciferase Reporter Assay (induction fold) ([3]; 100 μM): 10.79 ± 3.13 fold; NQO1 protein level (Western blot) [10]: induced expression of NQO1
O=C(/C=C1\NCC2c3ccccc3CCN2C1=O)c1ccccc1 (stereo not shown) [Compound 1] | – | – | – | – | – | – | – | – | – | – | – | – | expression of HO-1 [11]: induce; nuclear translocation of Nrf2 [12]: induce the nuclear translocation of Nrf2; development of colorectal adenomas [13]: significantly inhibit; induction of ARE (previously reported) [9]: 26.87 fold; expression of NQO1 [14]: induce

More lines, main results first:

melting point [°C] | Papp [4] [×10⁻⁶ cm/s] | pKa [5] | solubility [6] [µg/mL] | logD [7] | Compound | IC50 at 24 h [2] [µM] | fold induction at 0.1 µM [3] | fold induction at 1 µM [3] | fold induction at 5 µM [3] | fold induction at 10 µM ([3]; 10 μM) | fold induction at 50 µM [3] | fold induction at 100 µM ([3]; 100 μM) | other results
228 to 230 | 53 ± 7.29 | 2.9 | 46 (≈ 103 µM) | 0.61 | O=C(C=C1NCC2c3ccccc3CCN2C1=O)c1cccc(NC(=O)N2CCOCC2)c1 (stereo not shown) [Compound 1e, N-(3-(2-(4-oxo-1,6,7,11b-tetrahydro-2H-pyrazino[2,1-a]isoquinolin-3(4H)-ylidene)acetyl)phenyl)morpholine-4-carboxamide] | 183 | 1.57 ± 0.05 | 1.97 ± 0.2 | 4.53 ± 0.28 | 5.48 ± 0.13 | 7.8 ± 3.94 | 35 ± 3.15 | –
164 to 166 | 66.4 ± 5.08 | 3.42 | 530 (≈ 1960 µM) | 0.98 | O=C(C=C1NCC2CCCCN2C1=O)c1ccccc1 (stereo not shown) [Compound 3a, 3-(2-oxo-2-phenylethylidene)octahydro-4H-pyrido[1,2-a]pyrazin-4-one] | > 300 | 1.2 ± 0.49 | 4.09 ± 0.79 | 15.8 ± 2.08 | 16.4 ± 0.55 | 29.9 ± 8.49 | 40.6 ± 1.78 | –
172 to 174 | 44 ± 5.42 | 3.02 | 170 (≈ 574 µM) | 1.22 | O=C(C=C1NCC2c3ccccc3CCN2C1=O)C1CCC1 (stereo not shown) [Compound 2c, 3-(2-cyclobutyl-2-oxoethylidene)-1,2,3,6,7,11b-hexahydro-4H-pyrazino[2,1-a]isoquinolin-4-one] | 190 | 2.96 ± 0.48 | 3.04 ± 0.08 | 5.73 ± 1.44 | 13.3 ± 0.44 | 28 ± 1.39 | 29 ± 2.45 | –
156 to 158 | 54.5 ± 6 | 3.1 | 290 (≈ 1010 µM) | 1.23 | O=C(C=C1NCC2CCCCN2C1=O)c1cccc(F)c1 (stereo not shown) [Compound 3b, 3-(2-(3-fluorophenyl)-2-oxoethylidene)octahydro-4H-pyrido[1,2-a]pyrazin-4-one] | 168 | 0.7 ± 0.35 | 5.98 ± 2.31 | 24.8 ± 2.67 | 33 | 40 ± 0.69 | 4.41 ± 2.89 | ARE Inductivity in Luciferase Reporter Assay (induction fold) ([3]; 10 μM): 32.97 ± 3.68 fold
238 to 240 | – | – | – | – | Nc1ccc(C(=O)C=C2NCC3c4ccccc4CCN3C2=O)cc1 (stereo not shown) [Compound 1b, 3-(2-(4-aminophenyl)-2-oxoethylidene)-1,2,3,6,7,11b-hexahydro-4H-pyrazino[2,1-a]isoquinolin-4-one] | > 300 | 1.26 ± 0.28 | 1.26 ± 0.73 | 2.78 ± 0.29 | 3.45 ± 0.03 | 2.75 ± 0.68 | 2.68 ± 0.31 | –
279 to 281 | – | – | – | – | CC(=O)Nc1ccc(C(=O)C=C2NCC3c4ccccc4CCN3C2=O)cc1 (stereo not shown) [Compound 1d, N-(4-(2-(4-oxo-1,6,7,11b-tetrahydro-2H-pyrazino[2,1-a]isoquinolin-3(4H)-ylidene)acetyl)phenyl)acetamide] | > 300 | 1.24 ± 0.23 | 1.09 ± 0.72 | 1.49 ± 0.16 | 2.94 ± 1.9 | 7.14 ± 0.34 | 10.07 ± 0.05 | –
270 to 272 | – | – | – | – | O=C(C=C1NCC2c3ccccc3CCN2C1=O)c1c[nH]c2ccccc12 (stereo not shown) [Compound 2g, 3-(2-(1H-indol-3-yl)-2-oxoethylidene)-1,2,3,6,7,11b-hexahydro-4H-pyrazino[2,1-a]isoquinolin-4-one] | > 300 | 1.27 ± 0.52 | 2.31 ± 0.24 | 4.68 ± 0.29 | 5.84 ± 0.07 | 14.5 ± 0.36 | 9.69 ± 0.8 | –
152 to 154 | 32.7 ± 1.92 | 2.08 | 3310 (≈ 12700 µM) | -0.34 | O=C(C=C1NCC2CCCCN2C1=O)c1ccco1 (stereo not shown) [Compound 3g, 3-(2-(furan-2-yl)-2-oxoethylidene)octahydro-4H-pyrido[1,2-a]pyrazin-4-one] | > 300 | 0.24 ± 0.15 | 1.5 ± 0.01 | 6.41 ± 3.14 | 27 | 41.6 ± 2.6 | 79.7 | Nrf2 protein level (Western blot) [15]: elevated the protein level of Nrf2; ARE Inductivity in Luciferase Reporter Assay (induction fold) ([3]; 10 μM): 27.01 ± 2.46 fold; ARE Inductivity in Luciferase Reporter Assay (induction fold) ([3]; 100 μM): 79.74 ± 1.92 fold; NQO1 protein level (Western blot) [10]: induced by 3g in a concentration-dependent manner
